Laboratory results taken from patent publication US6340581B1, “Biological production of products from waste gases” (Bioengineering Resources, Inc., priority 1992, dated 2002).
Where two headings read alike, the source gives them in different places.

Experiments:
[1] = Acetic acid distribution coefficient study: solvents for recovering acetic acid from the permeate; assay type: physicochemical
[2] = Distribution coefficients of mixed solvents; assay type: physicochemical; conditions: oleyl alcohol 10 cc plus Cyc or TBP
[3] = aqueous phase after contact with the solvent

Compound	Equilibrium Aqueous Acetic Acid Concentration [1, 3]	Acetic Acid Distribution Coefficients ([1]; solvent vs aqueous phase)	Distribution Coefficients [2]	Acetic Acid Distribution Coefficients [1]	Equilibrium Aqueous Acetic Acid Concentration [1]
CCCCCCCCCC [Decane]	5.968 g/L	0.08			
CCCCCCCCCCCCOC(C)=O [Dodecyl acetate]	5.787 g/L	0.15			
CCCCCCCCCCCC [Dodecane]	4.654 g/L	0.13			
CCCCCC [Hexane]				0.0	6.559 g/L
O=C1CCCCC1 [Cyclohexanone]	2.702 g/L	1.66			
Dexyl alcohol	3.890 g/L	0.42			
CCCCOP(=O)(O)OCCCC [Dibutyl phosphate]				0.18	4.615 g/L
CCCCC(CC)CO (centres unmarked) [2-ethyl-1-hexanol]	3.308 g/L	0.77			
CC1CCCC(O)C1 (centres unmarked) [3-methylcyclohexanol]	2.110 g/L	1.26			
ClC(Cl)Cl [Chloroform]				0.09	5.128 g/L

Now from value to compound, other results behind:

Equilibrium Aqueous Acetic Acid Concentration [1, 3]	Acetic Acid Distribution Coefficients ([1]; solvent vs aqueous phase)	Distribution Coefficients [2]	Compound	Acetic Acid Distribution Coefficients [1]	Equilibrium Aqueous Acetic Acid Concentration [1]
5.114 g/L	0.28	0.17	CCCCCCCC/C=C\CCCCCCCCO [Oleyl alcohol]		
4.528 g/L	0.40		CCCCCCCCCCCO [Undecyl alcohol]		
5.866 g/L	1.13		CCCCCCCCCCCCCCCC [Hexadecane]		
3.785 g/L	0.31		CCCCCCCCN(CCCCCCCC)CCCCCCCC [Trioctylamine]		
4.665 g/L	0.42		CCCC(=O)OCC [Ethyl butyrate]		
4.550 g/L	0.41		CCOC(C)=O [Ethyl acetate]		
4.358 g/L	0.45		CCCCCCCCO [Octanol]		
